Structures can show the parent of a compound that is named as a salt.
What was measured:
[1] = biological target: T1, cellular TDO2 in HEK293-TDO2 cells (Homo sapiens, UniProt P48775); experiment: 293-TDO2 cell-based assay (Kyn colorimetric); conditions: 48 hours of incubation
T1 construct: expressed in transfected cells; host or cells: HEK293 (ATCC), stably transfected
Description: The inhibitory activity of TDO2 inhibitors is determined by using a colorimetric reaction to measure Kyn generated from L-Trp (L-Tryptophon) oxidation by cellular TDO2 in HEK293-TDO2 cells stably transfected with a plasmid expression of Tryptophan 2,3-dioxygenase (for short, 293-TDO2).
HEK293 cells were obtained from the American Type Culture Collection and 293-TDO2 were recovered in 10% FBS-containing phenol red-free DMEM medium. Cells were plated onto a 96-well plate (100 μl/well) at 10000 cells per well and kept at 37° C. in a humidified incubator supplied with 5% CO2. 4 hours later, Compounds at different concentrations diluted in dimethylsulfoxide (DMSO) were added to plate. Cells were kept at 37° C. in a humidified incubator supplied with 5% CO2. After 48 hours of incubation, 100 μl supernatant from each well was removed to a new plate. The protein in the medium was precipitated with the addition of 8 μl 6N trichloroacetic acid. The plate was incubated at 60° C. for 30 minutes and then centrifugation at 2500 rpm for 10 minutes to remove sediments. 80 μl supernatants were carefully removed to a new clean plate and added with an equal volume of 2% 4-(Dimethylamino) benzaldehyde (D2004, sigma) dissolved in glacial acetic acid. The absorbance at 480 nm wavelength derived from Kyn was measured using a PHERAstar FS plate reader (BMG LABTECH). The IC50 for each compound was derived from fitting the dose-response data to the four-parameter logistic model by using XLfit software (IDBS).

IDO1 [2] = biological target: T2, IDO1 (Homo sapiens, UniProt P14902); experiment: Hela cell-based IDO1 assay; conditions: Hela cells
In short: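 Kynurenine was measured at 480 nm in trichloroacetic acid-deproteinised supernatant after adding 2% 4-(dimethylamino)benzaldehyde. This supernatant came from HeLa cells seeded at 8000 per well in 96-well plates in phenol red-free DMEM with 10% FBS and, from 4 hours after seeding, exposed for 48 hours at 37 °C, 5% CO2 to DMSO-diluted compound dilutions, IFN-γ (final 100 ng/mL) and 0.4 mM L-Trp. The resulting data were fitted with a four-parameter logistic model in XLfit. Potency was taken from those fits.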

IDO1 [3] = biological target: T2, IDO1; experiment: IDO1 enzymatic assay; format: biochemical; parameters: His tag (N); made in house; host or cells: E. coli; conditions: read-out: Enzyme IC50 IDO1
In short: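 Compound was incubated with 50 nM His-tagged IDO1 from E. coli, 1.3 mM D-tryptophan, 5 mM L-ascorbic acid, methylene blue and 0.4 mg/mL catalase in 50 mM potassium phosphate pH 7.5, 0.1% BSA, at 24 °C for 1.5 hours. Activity was the slope of N'-formylkynurenine formation read continuously at 321 nm for 1 hour. IC50 was obtained from remaining activity versus compound concentration.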

T1 sequence (P48775 whole entry): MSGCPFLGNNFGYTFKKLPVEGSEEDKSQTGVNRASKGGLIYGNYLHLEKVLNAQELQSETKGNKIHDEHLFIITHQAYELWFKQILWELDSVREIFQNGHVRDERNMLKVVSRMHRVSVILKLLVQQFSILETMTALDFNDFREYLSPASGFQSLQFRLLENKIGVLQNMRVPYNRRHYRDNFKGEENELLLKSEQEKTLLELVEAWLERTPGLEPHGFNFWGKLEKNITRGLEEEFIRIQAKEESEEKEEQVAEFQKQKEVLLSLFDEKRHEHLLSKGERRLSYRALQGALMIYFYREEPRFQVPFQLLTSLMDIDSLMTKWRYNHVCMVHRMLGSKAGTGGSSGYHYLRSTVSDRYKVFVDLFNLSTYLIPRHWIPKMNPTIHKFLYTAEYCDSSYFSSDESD
T2 sequence (P14902 whole entry): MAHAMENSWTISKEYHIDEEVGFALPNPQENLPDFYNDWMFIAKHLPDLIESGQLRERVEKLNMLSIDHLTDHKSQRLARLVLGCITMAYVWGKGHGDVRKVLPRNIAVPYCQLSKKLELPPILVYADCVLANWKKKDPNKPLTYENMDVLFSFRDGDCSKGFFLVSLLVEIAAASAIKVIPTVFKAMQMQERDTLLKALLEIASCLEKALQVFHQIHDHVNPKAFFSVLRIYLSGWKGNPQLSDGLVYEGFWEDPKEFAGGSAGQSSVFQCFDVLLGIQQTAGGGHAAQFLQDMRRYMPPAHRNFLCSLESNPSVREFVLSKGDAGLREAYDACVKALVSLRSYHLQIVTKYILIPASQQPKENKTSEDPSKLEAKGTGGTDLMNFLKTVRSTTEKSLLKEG

| EC50 [1] [µM] | EC50 (IDO1 [2]) [µM] | IC50 (IDO1 [3]) [µM] | Structure (SMILES) |
| --- | --- | --- | --- |
| > 10 | 4.47 | > 10 | COc1ccc([C@H]2CC[C@H](C(O)c3c(C4CC4)ccc4cncn34)CC2)c2ccccc12 (single isomer, unassigned) [Example D139b] |
| > 10 | 6.99 | > 10 | O[C@@H](c1c(C2CC2)ccc2cncn12)[C@H]1CC[C@H](c2cccc(F)c2)CC1 (single isomer, unassigned) [Example D156b] |
| > 10 | 6.47 | > 10 | CC(C)c1ccc2cncn2c1[C@H](O)[C@H]1CC[C@H](c2cccc(Cl)c2)CC1 (single isomer, unassigned) [Example D168b] |
| > 10 | 7.01 | > 10 | COc1ccc([C@H]2CC[C@H](C(O)c3c(C4CC4)ccc4cncn34)CC2)cc1Cl (single isomer, unassigned) [Example D148b, hydrochloride] |
| > 10 | 0.443 | 0.033 | COc1ccc([C@H]2CC[C@H](C(O)c3c(C4CC4)ccc4cncn34)CC2)c2ccccc12 (single isomer, unassigned) [Example D139a] |
| > 10 | 0.668 | 0.064 | OC(c1c(C2CC2)ccc2cncn12)C1CCC(c2ccc(-c3ccccc3)cc2)CC1 (stereo not drawn) [Example D119, (4-([1,1′-biphenyl]-4-yl)cyclohexyl)(6-cyclopropylimidazo[1,5-a]pyridin-5-yl)methanol] |
| > 10 | 5.44 | 0.08 | OC(c1cc(Cl)cc2cncn12)C1CCC(c2ccc3ccccc3c2)CC1 (stereo not drawn) [Example E104, (7-chloroimidazo[1,5-a]pyridin-5-yl)(4-(naphthalen-2-yl)cyclohexyl)methanol] |
| > 10 | 0.093 | 0.036 | OC(c1c(C2CC2)ccn2cncc12)C1CCC(c2ccnc3ccccc23)CC1 (stereo not drawn) [Example C130, (7-cyclopropylimidazo[1,5-a]pyridin-8-yl)(4-(quinolin-4-yl)cyclohexyl)methanol] |
| > 10 | 0.148 | 0.053 | OC(c1c(C2CC2)ccc2cncn12)C1CCC(c2ccc(F)c(Cl)c2)CC1 (stereo not drawn) [Example D129, (4-(3-chloro-4-fluorophenyl)cyclohexyl)(6-cyclopropylimidazo[1,5-a]pyridin-5-yl)methanol] |
| > 10 | > 10 | > 10 | Cc1cccc([C@H]2CC[C@H]([C@@H](O)c3c(C4CC4)ccn4cncc34)CC2)c1 (single isomer, unassigned) [Example C111b] |
| > 10 | 5.63 | 9 | O[C@@H](c1c(C2CC2)ccc2cncn12)C1CCC(c2csc3ccccc23)CC1 (single isomer, unassigned) [Example D155b] |
| > 10 | 0.04 | 0.024 | OC(c1c(C2CC2)ccc2cncn12)C1CCN(c2ccc(Cl)c3ncccc23)CC1 (stereo not drawn) [Example D178, (1-(8-chloroquinolin-5-yl)piperidin-4-yl)(6-cyclopropylimidazo[1,5-a]pyridin-5-yl)methanol] |
| > 10 | > 10 | 1.1 | O[C@@H](c1c(C2CC2)ccn2cncc12)[C@H]1CC[C@H](c2ccc(OC3COC3)cc2)CC1 (single isomer, unassigned) [Example C117b] |
| > 10 | > 10 | 1.9 | OC(c1c(C2CC2)ccc2cncn12)[C@H]1CC[C@@H](c2ccc(Cl)cc2)CC1 (single isomer, unassigned) [Example D103a] |
| > 10 | 0.029 | 0.074 | OC(c1c(C2CC2)ccn2cncc12)C1CCN(c2ccccc2)CC1 (stereo not drawn) [Example C136, (7-cyclopropylimidazo[1,5-a]pyridin-8-yl)(1-phenylpiperidin-4-yl)methanol] |
| > 10 | 0.177 | 0.079 | OC(c1c(C2CC2)ccn2cncc12)C1CCN(c2ccc(F)cc2)CC1 (stereo not drawn) [Example C137, (7-cyclopropylimidazo[1,5-a]pyridin-8-yl)(1-(4-fluorophenyl)piperidin-4-yl)methanol] |

| EC50 [1] [µM] | EC50 (IDO1 [2]) [µM] | IC50 (IDO1 [3]) [µM] | Structure (SMILES) |
| --- | --- | --- | --- |
| > 10 | 0.384 | 0.12 | OC(c1c(C2CC2)ccn2cncc12)C1CCC(c2ccc(F)c(Cl)c2)CC1 (stereo not drawn) [Example C132, (4-(3-chloro-4-fluorophenyl)cyclohexyl)(7-cyclopropylimidazo[1,5-a]pyridin-8-yl)methanol] |
| > 10 | 2.58 | 1.1 | Oc1ccc([C@H]2CC[C@H]([C@@H](O)c3c(C4CC4)ccc4cncn34)CC2)cc1 [Example D106b, 4-((1R,4r)-4-((R)-(6-cyclopropylimidazo [1,5-a]pyridin-5-yl)(hydroxy)methyl)cyclohexyl)phenol] |
| > 10 | > 10 | 1.2 | O=C(O)c1ccc([C@H]2CC[C@H]([C@@H](O)c3c(C4CC4)ccc4cncn34)CC2)cc1 (single isomer, unassigned) [Example D111b] |
| > 10 | > 10 | > 10 | Cc1ccccc1[C@H]1CC[C@H]([C@@H](O)c2c(C3CC3)ccn3cncc23)CC1 (single isomer, unassigned) [Example C112b] |
| > 10 | 0.031 | 0.018 | O[C@H](c1c(C2CC2)ccc2cncn12)[C@H]1CC[C@H](c2ccc(F)c(F)c2)CC1 (single isomer, unassigned) [Example D126a] |
| > 10 | 0.095 | 0.062 | COCCOc1ccc(C2CCC(C(O)c3c(C4CC4)ccn4cncc34)CC2)cc1 (racemic) [Example C103, (7-cyclopropylimidazo[1,5-a]pyridin-8-yl)(4-(4-(2-methoxyethoxy)phenyl)cyclohexyl)methanol] |
| > 10 | 0.023 | 0.014 | O[C@H](c1c(C2CC2)ccc2cncn12)C1CCN(c2cccc(F)c2)CC1 [Example D172a] |
| > 10 | 5.12 | 7.67 | O[C@@H](c1c(C2CC2)ccc2cncn12)[C@H]1CC[C@H](c2ccc(F)c(Cl)c2)CC1 (single isomer, unassigned) [Example D129b] |
| > 10 | 0.462 | 0.054 | OC(c1c(C2CC2)ccc2cncn12)C1CCC(c2ccc(F)c(F)c2F)CC1 (stereo not drawn) [Example D145, (6-cyclopropylimidazo[1,5-a]pyridin-5-yl)(4-(2,3,4-trifluorophenyl)cyclohexyl)methanol] |
| > 10 | 5.67 | 2.7 | OC(c1c(C2CC2)ccc2cncn12)[C@H]1CC[C@H](c2ccc3ccsc3c2)CC1 (single isomer, unassigned) [Example D134b] |
| > 10 | 5.95 | 7.5 | COc1cccc([C@H]2CC[C@H]([C@@H](O)c3c(C(C)C)ccc4cncn34)CC2)c1 (single isomer, unassigned) [Example D169b] |
| > 10 | 7.58 | 3.8 | O[C@@H](c1c(C2CC2)ccc2cncn12)[C@H]1CC[C@H](c2cccc3ncccc32)CC1 (single isomer, unassigned) [Example D141b] |
| > 10 | 5.74 | 8.26 | O[C@@H](c1c(C2CC2)ccc2cncn12)C1CCN(c2ccc(F)cc2)CC1 (single isomer, unassigned) [Example D171b] |
| > 10 | 8.41 | > 10 | O[C@@H](c1c(C2CC2)ccc2cncn12)[C@H]1CC[C@H](c2ccc(Br)cc2)CC1 (single isomer, unassigned) [Example D118b] |
| > 10 | 0.187 | 0.026 | OC(c1c(C2CC2)ccc2cncn12)C1CCN(c2ccc3nccc(Cl)c3c2)CC1 (stereo not drawn) [Example D179, (1-(4-chloroquinolin-6-yl)piperidin-4-yl)(6-cyclopropylimidazo[1,5-a]pyridin-5-yl)methanol] |
| > 10 | 0.05 | 0.043 | Oc1ccccc1C1CCC(C(O)c2c(C3CC3)ccc3cncn23)CC1 (stereo not drawn) [Example D112, 2-(4-((6-cyclopropylimidazo[1,5-a]pyridin-5-yl)(hydroxy)methyl)cyclohexyl)phenol] |
